Experimental data taken from patent US20170304329A1 (THE UNIVERSITY OF KANSAS, priority 2014, published 2017).

Tests used:
Format in all cases: cell-based, human
253JBV cells = test: Cell proliferation, hexosaminidase assay; conditions: for IC50: 48 h
Protocol: (§1) To determine the effect of CPX on bladder cancer cell proliferation in T24 (MIBC) and 253-JBV (NMIBC) cells, 5,000 cells per well were seeded on to 96-well plates and grown overnight. The cells were then treated with increasing doses of CPX in RPMI media containing 10% FBS. Analysis of cell proliferation after the treatment period was estimated by the hexosaminidase assay. Briefly, the medium was removed and hexosaminidase substrate solution in citrate buffer pH 5 (7.5 mM), p-nitrophenol-N-acetyl-beta-D-glucosaminidase (Sigma Aldrich) was added at 75 μL per well. The plate was incubated at 37° C. in 100% humidity for 30 minutes. The reaction was stopped with 112.5 μL of 50 mM glycine containing 5 mM of EDTA (pH 10.4). The absorbance was measured at 405 nm. Experiments were conducted at n=6, and then repeated at least three times. The data were analyzed as percent of control, where the control wells were treated with equivalent amounts of DMSO alone. For IC50 calculations, a plot between the drug concentration and hexosaminidase activity was generated and the data was fitted either linearly or exponentially. The best fit was used for further processing of data.
(§2) We determined and compared the effect of CPX with CPX-POM and CPX-glucuronide in vitro by performing proliferation assay. To determine the effect of CPX, CPX-POM and CPX-glucuronide on bladder cancer cell proliferation in T24 (MIBC) and 253-JBV (NMIBC) cells, 5,000 cells per well were seeded on to 96-well plates and grown overnight. The cells were then treated with increasing doses of CPX, CPX-POM and CPX-glucuronide in RPMI media containing 10% FBS. Analysis of cell proliferation after the treatment period was estimated by the hexosaminidase assay. Briefly, the medium was removed and hexosaminidase substrate solution in citrate buffer pH 5 (7.5 mM), p-nitrophenol-N-acetyl-beta-D-glucosaminidase (Sigma Aldrich) was added at 75 μL per well. The plate was incubated at 37° C. in 100% humidity for 30 minutes. The reaction was stopped with 112.5 μL of 50 mM glycine containing 5 mM of EDTA (pH 10.4). The absorbance was measured at 405 nm.
(§3) Experiments were conducted at n=6, and then repeated at least three times. The data were analyzed as percent of control, where the control wells were treated with equivalent amounts of DMSO alone. For IC50 so calculations, a plot between the drug concentration and hexosaminidase activity was generated and the data was fitted either linearly or exponentially.

T24 cells [1] = test: Cell proliferation, hexosaminidase assay
Protocol: as §1, §2, §3

T24 cells [2] = test: Proliferation with predicted CPX urine concentration in 20% normal urine; conditions: 3 days treatment, 50 uM-1.5625 uM CPX in 20% normal urine, 72 h
Protocol: We next determined the effect of CPX in normal urine on T24 and 253JBV cells upon everyday treatment for up to 72 h (3 days treatment). The idea behind this experiment is to see the effect of predicted concentration of CPX in human urine on bladder cancer cells as the patient's bladder will be exposed every day to the predicted concentration of CPX. Three sets of plates were used, one plate each for one day treatment, two days treatment and three days treatment of CPX (50-1.5625 uM). T24 and 253JBV cells were incubated with CPX in normal urine (20% normal urine in complete RPMI media). […] The effect of CPX was determined by hexosaminidase assay beyond the 12 hours of varying CPX concentration (25 h, 48 h, and 72 h). In two days treatment, the cells are exposed to 50 uM-1.5625 uM for two days and the effect was determined by hexosaminidase assay at 48 h and 72 h time points. In three days treatment, the cells are exposed to 50 uM-1.5625 uM for three days and the effect was determined by hexosaminidase assay at 72 h time point.
T24 Cells were incubated with CPX in normal urine (20% normal urine in complete RPMI media). […] The effect of CPX was determined by hexosaminidase assay beyond the 12 hours of varying CPX concentration (25 h, 48 h, and 72 h). […]

T24 bladder cancer cells = test: Annexin V-FITC apoptosis labeling; conditions: 4 μM, up to 48 h
Protocol: It was determined that CPX induces apoptosis. We next determined whether the compounds could induce cell death through the apoptotic pathway. For this we treated T24 bladder cancer cells with CPX (4 μM) and labeled the cells with FITC conjugated Annexin V to detect apoptotic cells. […] Cells were incubated with the indicated dose of compound for up to 48 h.

[3] = tested on: 253JBV bladder cancer cell spheroids; test: Spheroid (bladdosphere) assay; conditions: I generation, 7 days
From the text: (§4) The spheroid assay, which is sometimes also called the 3D assay was developed as a method to propagate epithelial stem cells in vitro, and is now a standard surrogate reporter for stem cell activity. The assay (in this case called bladdosphere assay) is based on the hypothesis that the unique, undifferentiated cells present in bladder cancers will survive in suspension culture, while the other cells will die by anoikis. Therefore, we characterized the effect of ciclopirox (CPX) in bladdosphere assay. Here, cancer cells are plated in ultra-low binding plates and the resulting spheroids are believed to represent growth from stem cells.
(§5) For formation of spheroids, cells were cultured in RPMI 1640 (Mediatech) supplemented with 20 ng/mL bFGF (Invitrogen) 10 mL per 500 mL of 50×B27 supplement (Invitrogen) EGF 20 ng/mL (Invitrogen) and antibiotic and antimycotic solution. Cells were seeded at low densities (5000 cells/mL) in 6-well low adhesion plates. The cells were treated with increasing concentrations of CPX (0.5×, 1×, and 2× of IC50 calculated from cell proliferation assay—2 μM for 253JBV and 4 μM for T24). After 7 days the spheroids were photographed (I generation). Control spheroids and spheroids treated with CPX (1×IC50) were collected, trypsinized and re-plated for the secondary spheroid growth (II generation), followed by tertiary spheroid development (III generation).

[4] = tested on: T24 bladder cancer cell spheroids; test: Spheroid (bladdosphere) assay; conditions: I generation, 7 days
From the text: as §4, §5

Question: With `Cc1cc(C2CCCCC2)n(O)c(=O)c1` [CPX, 6-cyclohexyl-1-hydroxy-4-methylpyridin-2(1H)-one] as the compound, how does the IC50 (253JBV cells) read?
Answer: 3000 nM

Question: What about the IC50 (253JBV cells; Homo sapiens) of the same compound?
Answer: 2000 nM

Question: What about the “effect on cell proliferation” value (253JBV cells; up to 72 h) of the same compound?
Answer: significant dose- and time-dependent decrease in cell proliferation

Question: What about the IC50 (T24 cells [1]; Homo sapiens, T-24, 48 h, 48 h) of the same compound?
Answer: 4000 nM

Question: And the “effect on cell proliferation” value (T24 cells [1]; up to 72 h)?
Answer: significant dose- and time-dependent decrease in cell proliferation

Question: And the “maximum inhibition of proliferation” value (T24 cells [2])?
Answer: 20%

Question: And the “cell death (Annexin V-FITC labeled cells)” value (T24 bladder cancer cells)?
Answer: significant increase in cell death

Question: What about the spheroid formation [3] of the same compound?
Answer: significant decrease in size and number of spheroids

Question: And the spheroid formation [4]?
Answer: significant decrease in size and number of spheroids
